Results from patent publication US4948873A, “Gonadoliberine analogues of high activity” (Richter Gedeon Vegyeszeti Gyar, priority 1985, dated 1990).

Experiments:
Assay type in all cases: in vivo
[1] = tested on: LH hormone; assay: LH concentration in the serum of male mice after subcutaneous administration (radioimmunoassay); settings: dose 200 ng/mouse; for LH serum level in mice after the treatments, 2 hours: 2 hours after treatment; for LH serum level in mice after the treatments, 4 hours: 4 hours after treatment; for LH serum level in mice after the treatments, 6 hours: 6 hours after treatment
Method: The common feature of the superactive GnRH analogues is that they liberate many times the amount of LH hormone than the natural GnRH could do and the duration of their effect is also much longer. In order to illustrate the above statements the activity for liberating LH hormone of the natural GnRH analogues and some superactive and some representatives of the GnRH analogues of formula I according to the invention are shown in FIG. 1. The experiments were carried out on male mice, the active ingredient was administered subcutaneously and the LH content of the serum of the blood of the animals was measured by radioimmunoassay.
Table I summarizes the biological data of a preferable representative of the GnRH analogues of formula I, Asu^6 -desGly^10 -GnRH-ethylamide.

[2] = tested on: rats; assay: Toxicity in rats, single dose; settings: single dose of 10 mg/kg
Text: (§1) The toxicity data of Asu^6, desGly^10 -GnRH-ethylamide are as follows: […]

[3] = tested on: rats; assay: Toxicity in rats, administration for 17 days; settings: 10 μg/rat for 17 days
Text: as §1

[4] = tested on: sexually mature female rats; assay: Inhibition of ovulation in rats; settings: 0.5 μg/rat for 17 days
Method: (c) Inhibition of ovulation in rats
The compound was administered for 17 days in a dose of 0.5 μg/rats to sexually mature female rats. The inhibition of ovulation was 100%. The experimental method is described in B.B.R.C. 118, 351 […] Kovacs et al.

[5] = tested on: sexually matured female rabbits; assay: Induction of ovulation in angora rabbit; settings: single dose of 1.5 μg/rabbit, thereafter artificially inseminated
Method: (d) Induction of ovulation in angora rabbit
The sexually matured female rabbits were administered with a single does of 1.5 μg/rabbit, thereafter artificially inseminated. 90% of the animals became pregnant.

Substance | LH serum level in mice after the treatments, 2 hours [1] | LH serum level in mice after the treatments, 4 hours [1] | LH serum level in mice after the treatments, 6 hours [1] | toxicity [2] | toxicity [3] | inhibition of ovulation [4] | animals that became pregnant [5]
Glp-His-Trp-Ser-Tyr-Asu-Leu-Arg-Pro-ethylamide [Asu^6,desGly^10 -GnRH-ethylamide] | 958.4 ng/mL | 702.3 ng/mL | 216.2 ng/mL | did not prove to be toxic | atoxic | 100% | 90%
GnRh: native gonadoliberine peptide hormone of hypothalamic origin [reference compound] | 85.2 ng/mL | 81.4 ng/mL | 87.0 ng/mL |  |  |  | 
